Data as given in patent US20120220562A1, “Anti-Viral Compounds” (ABBOTT LABAORATORIES, priority 2011, published 2012).

Tested on: HCV 1b-Con1 replicon
Assay: HCV 1b-Con1 replicon assay in the presence of 5% FBS
Assay type: cell-based
Conditions: Hepatitis C virus

| Structure (SMILES) | EC50 [nM] |
| --- | --- |
| COC(=O)NC(C(=O)N1CCC[C@H]1c1nc2cc([C@@H]3CC[C@@H](c4ccc5[nH]c([C@@H]6CCCN6C(=O)C(NC(=O)OC)=C(C)C)nc5c4)N3c3ccc(C(C)(C)C)cc3)ccc2[nH]1)=C(C)C [Example 3.17, dimethyl {[(2S,5S)-1-(4-tert-butylphenyl)pyrrolidine-2,5-diyl]bis[1H-benzimidazole-5,2-diyl(2S)pyrrolidine-2,1-diyl(3-methyl-1-oxobut-2-ene-1,2-diyl)]}biscarbamate] | < 0.1 |
| COC(=O)N[C@H](C(=O)N1CCC[C@H]1c1nc2cc([C@H]3CC[C@H](c4ccc5[nH]c([C@@H]6CCCN6C(=O)[C@@H](NC(=O)OC)C6CCOCC6)nc5c4)N3c3cc(F)c(N4CCC(c5ccccc5)CC4)c(F)c3)ccc2[nH]1)C(C)C [Example 11.1, methyl [(1S)-2-[(2S)-2-{5-[(2R,5R)-1-[3,5-difluoro-4-(4-phenylpiperidin-1-yl)phenyl]-5-{2-[(2S)-1-{(2S)-2-[(methoxycarbonyl)amino]-3-methylbutanoyl}pyrrolidin-2-yl]-1H-benzimidazol-5-yl}pyrrolidin-2-yl]-1H-benzimidazol-2-yl}pyrrolidin-1-yl]-2-oxo-1-(tetrahydro-2H-pyran-4-yl)ethyl]carbamate] | < 0.1 |
| COC(=O)N[C@H](C(=O)N1CCC[C@H]1c1nc2ccc([C@H]3CC[C@H](c4ccc5nc([C@@H]6CCCN6C(=O)[C@@H](NC(=O)OC)C(C)C)[nH]c5c4)N3c3cc(F)c(N4CCC(c5ccc6ccccc6c5)CC4)c(F)c3)cc2[nH]1)C(C)C [Example 2.12, methyl {(2S)-1-[(2S)-2-{5-[(2R,5R)-1-{3,5-difluoro-4-[4-(2-naphthyl)piperidin-1-yl]phenyl}-5-{2-[(2S)-1-{(2S)-2-[(methoxycarbonyl)amino]-3-methylbutanoyl}pyrrolidin-2-yl]-1H-benzimidazol-5-yl}pyrrolidin-2-yl]-1H-benzimidazol-2-yl}pyrrolidin-1-yl]-3-methyl-1-oxobutan-2-yl}carbamate] | < 0.1 |
| COC(=O)N[C@H](C(=O)N1CCC[C@H]1c1nc2c(Cl)c([C@H]3CC[C@@H](c4ccc5[nH]c([C@@H]6CCCN6C(=O)[C@@H](NC(=O)OC)C(C)C)nc5c4Cl)N3c3ccc(C(C)(C)C)cc3)ccc2[nH]1)C(C)C [Example 6.6, methyl {(2S)-1-[(2S)-2-{5-[(2R,5S)-1-(4-tert-butylphenyl)-5-{4-chloro-2-[(2S)-1-{(2S)-2-[(methoxycarbonyl)amino]-3-methylbutanoyl}pyrrolidin-2-yl]-1H-benzimidazol-5-yl}pyrrolidin-2-yl]-4-chloro-1H-benzimidazol-2-yl}pyrrolidin-1-yl]-3-methyl-1-oxobutan-2-yl}carbamate] | < 0.1 |
| COC(=O)N[C@H](C(=O)N1CCC[C@H]1c1nc2ccc([C@H]3CC[C@H](c4ccc5nc([C@@H]6CCCN6C(=O)[C@@H](NC(=O)OC)C(C)C)[nH]c5c4)N3c3c(F)c(F)c(N4CCCCC4)c(F)c3F)cc2[nH]1)C(C)C [Example 2.6, methyl {(2S)-1-[(2S)-2-(6-{(2R,5R)-5-{2-[(2S)-1-{(2S)-2-[(methoxycarbonyl)amino]-3-methylbutanoyl}pyrrolidin-2-yl]-1H-benzimidazol-6-yl}-1-[2,3,5,6-tetrafluoro-4-(piperidin-1-yl)phenyl]pyrrolidin-2-yl}-1H-benzimidazol-2-yl)pyrrolidin-1-yl]-3-methyl-1-oxobutan-2-yl}carbamate] | < 0.1 |
| COC(=O)N[C@H](C(=O)N1CCC[C@H]1c1nc2cc([C@H]3CC[C@H](c4cc5nc([C@@H]6CCCN6C(=O)[C@@H](NC(=O)OC)C(C)C)[nH]c5cc4F)N3c3cc(F)c(N4CCC(c5ccc(C)s5)CC4)c(F)c3)c(F)cc2[nH]1)C(C)C [Example 4.61, methyl {(2S)-1-[(2S)-2-{5-[(2R,5R)-1-{3,5-difluoro-4-[4-(5-methyl-2-thienyl)piperidin-1-yl]phenyl}-5-{6-fluoro-2-[(2S)-1-{(2S)-2-[(methoxycarbonyl)amino]-3-methylbutanoyl}pyrrolidin-2-yl]-1H-benzimidazol-5-yl}pyrrolidin-2-yl]-6-fluoro-1H-benzimidazol-2-yl}pyrrolidin-1-yl]-3-methyl-1-oxobutan-2-yl}carbamate] | < 0.1 |
